According to patent US11384067B2, “Pyrazole n-linked carbamoyl cyclohexyl acids as LPA antagonists” (BRISTOL-MYERS SQUIBB COMPANY, priority 2017, dated 2022):

What follows are molecules tested against T1, human LPA1 (Homo sapiens, UniProt Q92633) (assay: LPA1 functional antagonist assay (LPA-induced calcium flux)). Conditions: CHO cells overexpressing human LPA1, 10 nM LPA, read-out: hLPA1 IC50.
T1 construct: expressed in transfected cells; host or cells: Chinese hamster ovary (CHO) cells
Format: cell-based
Method: The effectiveness of compounds of the present invention as LPA1 inhibitors can be determined in an LPA1 functional antagonist assay as follows:
The cells were then equilibrated to room temperature for 30 minutes before the assay. […] IC50 values were determined by fitting data to a 4-parameter logistic equation (GraphPad Prism, San Diego Calif.).

T1 sequence (Q92633 whole entry): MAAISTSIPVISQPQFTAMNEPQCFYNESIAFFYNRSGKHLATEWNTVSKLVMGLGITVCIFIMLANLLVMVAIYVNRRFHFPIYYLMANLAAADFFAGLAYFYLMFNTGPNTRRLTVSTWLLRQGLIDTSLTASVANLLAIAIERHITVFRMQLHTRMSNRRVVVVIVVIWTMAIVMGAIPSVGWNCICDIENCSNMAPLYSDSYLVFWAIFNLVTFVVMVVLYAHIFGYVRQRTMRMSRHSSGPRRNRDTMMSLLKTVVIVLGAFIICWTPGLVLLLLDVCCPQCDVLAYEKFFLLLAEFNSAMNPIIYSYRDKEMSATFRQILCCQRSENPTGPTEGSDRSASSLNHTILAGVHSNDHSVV

SMILES	IC50 [nM]
CCCCOC(=O)NCc1c(-c2ccc(O[C@H]3CCC[C@H](C(=O)O)C3)c(C)n2)cnn1C [Example 1, (1S,3S)-3-((6-(5-(((Butoxycarbonyl)amino)methyl)-1-methyl-1H-pyrazol-4-yl)-2-methylpyridin-3-yl)oxy)cyclohexanecarboxylic Acid]	28
CCCCOC(=O)N(C)Cc1c(-c2ccc(O[C@H]3CCC[C@H](C(=O)O)C3)c(C)n2)cnn1C [Example 2, (1S,3S)-3-((6-(5-(((Butoxycarbonyl)(methyl)amino)methyl)-1-methyl-1H-pyrazol-4-yl)-2-methylpyridin-3-yl)oxy)cyclohexanecarboxylic Acid]	49
Cc1cccc(COC(=O)NCc2c(-c3ccc(O[C@H]4CCC[C@H](C(=O)O)C4)cn3)cnn2C)c1 [Example 7, (1S,3S)-3-((6-(1-methyl-5-(((((3-methylbenzyl)oxy)carbonyl)amino)methyl)-1H-pyrazol-4-yl)pyridin-3-yl)oxy)cyclohexane-1-carboxylic acid]	280
Cn1ncc(-c2ccc(O[C@H]3CCC[C@H](C(=O)O)C3)cn2)c1CNC(=O)OCc1cc(F)cc(F)c1 [Example 8, (1S,3S)-3-((6-(5-(((((3,5-difluoro-benzyl)oxy)carbonyl)amino)methyl)-1-methyl-1H-pyrazol-4-yl)pyridin-3-yl)oxy)cyclohexane-1-carboxylic acid]	111
CCCCCCOC(=O)NCc1c(-c2ccc(O[C@H]3CCC[C@H](C(=O)O)C3)cn2)cnn1C [Example 13, (1S,3S)-3-((6-(5-((((hexyloxy)carbonyl)amino)methyl)-1-methyl-1H-pyrazol-4-yl)pyridin-3-yl)oxy)cyclohexane-1-carboxylic acid]	834
Cc1cccc(COC(=O)NCc2c(-c3ccc(O[C@H]4CCC[C@H](C(=O)O)C4)c(C)n3)cnn2C)c1 [Example 15, (1S,3S)-3-((2-methyl-6-(1-methyl-5-(((((3-methylbenzyl)oxy)carbonyl)amino)methyl)-1H-pyrazol-4-yl)pyridin-3-yl)oxy)cyclohexane-1-carboxylic acid]	2
CC(C)COC(=O)NCc1c(-c2ccc(O[C@H]3CCC[C@H](C(=O)O)C3)cn2)cnn1C [Example 17, (1S,3S)-3-((6-(5-(((isobutoxy-carbonyl)amino)methyl)-1-methyl-1H-pyrazol-4-yl)pyridin-3-yl)oxy)cyclohexane-1-carboxylic acid]	1640
CCCCOC(=O)NCc1c(-c2ccc(O[C@H]3CCC[C@H](C(=O)O)C3)cn2)cnn1C [Example 18, (1S,3S)-3-((6-(5-(((butoxycarbonyl)amino)methyl)-1-methyl-1H-pyrazol-4-yl)pyridin-3-yl)oxy)cyclohexane-1-carboxylic acid]	325
CCCCCOC(=O)NCc1c(-c2ccc(O[C@H]3CCC[C@H](C(=O)O)C3)c(C)n2)cnn1C [Example 19, (1S,3S)-3-((2-methyl-6-(1-methyl-5-((((pentyloxy)carbonyl)amino)methyl)-1H-pyrazol-4-yl)pyridin-3-yl)oxy)cyclohexane-1-carboxylic acid]	4
CCCOC(=O)NCc1c(-c2ccc(O[C@H]3CCC[C@H](C(=O)O)C3)c(C)n2)cnn1C [Example 20, (1S,3S)-3-((2-methyl-6-(1-methyl-5-(((propoxycarbonyl)amino)methyl)-1H-pyrazol-4-yl)pyridin-3-yl)oxy)cyclohexane-1-carboxylic acid]	275
Cc1cccc(COC(=O)NCc2c(-c3ccc(O[C@H]4CCC[C@H](C(=O)O)C4)cn3)cnn2C)c1 [Example 21, (1S,3S)-3-((6-(1-methyl-5-(((((3-methylbenzyl)oxy)carbonyl)amino)methyl)-1H-pyrazol-4-yl)pyridin-3-yl)oxy)cyclohexane-1-carboxylic acid]	182
CCCCOC(=O)N(C)Cc1c(-c2ccc(O[C@H]3CCC[C@H](C(=O)O)C3)cn2)cnn1C [Example 23, (1S,3S)-3-((6-(5-(((butoxycarbonyl)(methyl)amino)methyl)-1-methyl-1H-pyrazol-4-yl)pyridin-3-yl)oxy)cyclohexane-1-carboxylic acid]	243
Cc1nc(-c2cnn(C)c2CNC(=O)OCC(C)C)ccc1O[C@H]1CCC[C@H](C(=O)O)C1 [Example 28, (1S,3S)-3-((6-(5-(((isobutoxy-carbonyl)amino)methyl)-1-methyl-1H-pyrazol-4-yl)-2-methylpyridin-3-yl)oxy)cyclohexane-1-carboxylic acid]	29
Cc1nc(-c2cnn(C)c2CNC(=O)OCC(C)C)cnc1O[C@H]1CCC[C@H](C(=O)O)C1 [Example 29, (1S,3S)-3-((5-(5-(((isobutoxy-carbonyl)amino)methyl)-1-methyl-1H-pyrazol-4-yl)-3-methylpyrazin-2-yl)oxy)cyclohexane-1-carboxylic acid]	1200
CCCCOC(=O)NCc1c(-c2cnc(O[C@H]3CCC[C@H](C(=O)O)C3)c(C)n2)cnn1C [Example 30, (1S,3S)-3-((5-(5-(((butoxycarbonyl)amino)methyl)-1-methyl-1H-pyrazol-4-yl)-3-methylpyrazin-2-yl)oxy)cyclohexane-1-carboxylic acid]	283

Further molecules by falling IC50, results first:

IC50 [nM]	SMILES
1660	CN(Cc1c(-c2ccc(O[C@H]3CCC[C@H](C(=O)O)C3)cn2)cnn1C)C(=O)OCc1cc(F)ccc1F [Example 10, (1S,3S)-3-((6-(5-(((((2,5-difluoro-benzyl)oxy)carbonyl)(methyl)amino)methyl)-1-methyl-1H-pyrazol-4-yl)pyridin-3-yl)oxy)cyclohexane-1-carboxylic acid]
355	Cn1ncc(-c2ccc(O[C@H]3CCC[C@H](C(=O)O)C3)cn2)c1CNC(=O)OCCc1ccccc1 [Example 22, (1S,3S)-3-((6-(1-methyl-5-(((phen-ethoxycarbonyl)amino)methyl)-1H-pyrazol-4-yl)pyridin-3-yl)oxy)cyclohexane-1-carboxylic acid]
211	Cc1nc(-c2cnn(C)c2CN(C)C(=O)OCc2ccccc2)ccc1O[C@H]1CCC[C@H](C(=O)O)C1 [Example 32, (1S,3S)-3-((6-(5-((((benzyloxy)carbonyl)(methyl)amino)methyl)-1-methyl-1H-pyrazol-4-yl)-2-methyl-pyridin-3-yl)oxy)cyclohexane-1-carboxylic acid]
207	Cn1ncc(-c2ccc(O[C@H]3CCC[C@H](C(=O)O)C3)cn2)c1CNC(=O)OCC(C)(C)C [Example 14, (1S,3S)-3-((6-(1-methyl-5-((((neo-pentyloxy)carbonyl)amino)methyl)-1H-pyrazol-4-yl)pyridin-3-yl)oxy)cyclohexane-carboxylic acid]
204	CN(Cc1c(-c2ccc(O[C@H]3CCC[C@H](C(=O)O)C3)cn2)cnn1C)C(=O)OCc1ccccc1 [Example 24, (1S,3S)-3-((6-(5-((((benzyloxy)carbonyl)(methyl)amino)methyl)-1-methyl-1H-pyrazol-4-yl)pyridin-3-yl)oxy)cyclohexane-1-carboxylic acid]
71	Cn1ncc(-c2ccc(O[C@H]3CCC[C@H](C(=O)O)C3)cn2)c1CNC(=O)OCc1cc(F)ccc1F [Example 9, (1S,3S)-3-((6-(5-(((((2,5-difluoro-benzyl)oxy)carbonyl)amino)methyl)-1-methyl-1H-pyrazol-4-yl)pyridin-3-yl)oxy)cyclohexane-1-carboxylic acid]
29	Cc1nc(-c2cnn(C)c2CNC(=O)OCc2ccccc2)cnc1O[C@H]1CCC[C@H](C(=O)O)C1 [Example 31, (1S,3S)-3-((5-(5-((((benzyloxy)carbonyl)amino)methyl)-1-methyl-1H-pyrazol-4-yl)-3-methylpyrazin-2-yl)oxy)cyclohexane-1-carboxylic acid]
23	C[C@@H](OC(=O)NCc1c(-c2ccc(O[C@H]3CCC[C@H](C(=O)O)C3)cn2)cnn1C)c1ccccc1 [Example 16, (1S,3S)-3-((6-(1-methyl-5-(((((R)-1-phenylethoxy)carbonyl)amino)methyl)-1H-pyrazol-4-yl)pyridin-3-yl)oxy)cyclohexane-1-carboxylic acid]
22	Cc1nc(-c2cnn(C)c2CNC(=O)OCC(C)(C)C)ccc1O[C@H]1CCC[C@H](C(=O)O)C1 [Example 27]
20	Cn1ncc(-c2ccc(O[C@H]3CCC[C@H](C(=O)O)C3)cn2)c1CNC(=O)OCc1ccccc1 [Example 25, (1S,3S)-3-((6-(5-((((benzyloxy)carbonyl)amino)methyl)-1-methyl-1H-pyrazol-4-yl)pyridin-3-yl)oxy)cyclohexane-1-carboxylic acid]
16	CCCCCOC(=O)NCc1c(-c2ccc(O[C@H]3CCC[C@H](C(=O)O)C3)cn2)cnn1C [Example 12, (1S,3S)-3-((6-(1-methyl-5-((((pentyl-oxy)carbonyl)amino)methyl)-1H-pyrazol-4-yl)pyridin-3-yl)oxy)cyclohexane-1-carboxylic acid]
14	CCCCCCOC(=O)NCc1c(-c2ccc(O[C@H]3CCC[C@H](C(=O)O)C3)c(C)n2)cnn1C [Example 26]
12	Cc1nc(-c2cnn(C)c2CNC(=O)OCc2cccc(F)c2)ccc1O[C@H]1CCC[C@H](C(=O)O)C1 [Example 4, (1S,3S)-3-((6-(5-(((((3-fluorobenzyl)oxy)carbonyl)amino)methyl)-1-methyl-1H-pyrazol-4-yl)-2-methyl-pyridin-3-yl)oxy)cyclohexane-1-carboxylic acid]
11	Cc1nc(-c2cnn(C)c2CNC(=O)O[C@H](C)c2ccccc2)ccc1O[C@H]1CCC[C@H](C(=O)O)C1 [Example 5, (1S,3S)-3-((2-methyl-6-(1-methyl-5-(((((R)-1-phenylethoxy)carbonyl)amino)methyl)-1H-pyrazol-4-yl)pyridin-3-yl)oxy)cyclohexane-1-carboxylic acid]
7	Cc1nc(-c2cnn(C)c2CNC(=O)OCc2cc(F)cc(F)c2)ccc1O[C@H]1CCC[C@H](C(=O)O)C1 [Example 6, (1S,3S)-3-((6-(5-(((((3,5-difluoro-benzyl)oxy)carbonyl)amino)methyl)-1-methyl-1H-pyrazol-4-yl)-2-methyl-pyridin-3-yl)oxy)cyclohexane-1-carboxylic acid]
